Source: patent US20250090540A1, “PI3K-ALPHA INHIBITORS AND METHODS OF USE THEREOF” (Relay Therapeutics, Inc., priority 2021, published 2025)

Columns and labels:
H1047R PIK3CA enzyme = H1047R PIK3CA enzyme (Homo sapiens, UniProt P42336, H1047R); experiment: ADP-Glo Biochemical PIK3CA Kinase Assay
cells = details: Homo sapiens, MCF-10A, read-out: MCF10A I50

H1047R PIK3CA enzyme, sequence (P42336 whole entry H1047R): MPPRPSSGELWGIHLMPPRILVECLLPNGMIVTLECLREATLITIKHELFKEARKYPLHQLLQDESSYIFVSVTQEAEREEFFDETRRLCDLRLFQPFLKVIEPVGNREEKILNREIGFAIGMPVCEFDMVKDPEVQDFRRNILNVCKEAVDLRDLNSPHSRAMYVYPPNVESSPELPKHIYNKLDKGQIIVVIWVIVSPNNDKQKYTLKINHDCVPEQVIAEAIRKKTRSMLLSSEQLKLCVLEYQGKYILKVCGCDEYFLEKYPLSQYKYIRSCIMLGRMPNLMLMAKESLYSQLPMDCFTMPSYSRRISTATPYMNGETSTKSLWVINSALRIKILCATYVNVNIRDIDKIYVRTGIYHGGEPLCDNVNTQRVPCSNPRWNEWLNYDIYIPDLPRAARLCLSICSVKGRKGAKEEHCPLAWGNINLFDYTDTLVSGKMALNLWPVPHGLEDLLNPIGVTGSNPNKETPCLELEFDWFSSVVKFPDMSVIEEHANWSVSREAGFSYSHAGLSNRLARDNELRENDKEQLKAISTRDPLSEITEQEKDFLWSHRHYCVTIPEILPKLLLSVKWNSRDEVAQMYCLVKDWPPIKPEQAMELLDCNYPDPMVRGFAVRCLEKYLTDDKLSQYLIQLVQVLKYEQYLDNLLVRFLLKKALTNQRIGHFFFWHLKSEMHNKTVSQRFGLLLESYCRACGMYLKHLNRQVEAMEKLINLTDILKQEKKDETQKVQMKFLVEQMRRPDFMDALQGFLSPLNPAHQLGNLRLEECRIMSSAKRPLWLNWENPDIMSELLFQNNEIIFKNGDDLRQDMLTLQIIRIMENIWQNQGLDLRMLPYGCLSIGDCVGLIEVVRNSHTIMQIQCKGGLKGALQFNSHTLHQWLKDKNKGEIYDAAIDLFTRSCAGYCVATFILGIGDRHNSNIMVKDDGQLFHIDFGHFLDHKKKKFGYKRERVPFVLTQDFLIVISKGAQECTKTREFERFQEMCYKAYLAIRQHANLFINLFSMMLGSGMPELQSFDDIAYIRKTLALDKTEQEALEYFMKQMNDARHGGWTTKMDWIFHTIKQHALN
H1047R PIK3CA enzyme, sequence (P27986 whole entry partner): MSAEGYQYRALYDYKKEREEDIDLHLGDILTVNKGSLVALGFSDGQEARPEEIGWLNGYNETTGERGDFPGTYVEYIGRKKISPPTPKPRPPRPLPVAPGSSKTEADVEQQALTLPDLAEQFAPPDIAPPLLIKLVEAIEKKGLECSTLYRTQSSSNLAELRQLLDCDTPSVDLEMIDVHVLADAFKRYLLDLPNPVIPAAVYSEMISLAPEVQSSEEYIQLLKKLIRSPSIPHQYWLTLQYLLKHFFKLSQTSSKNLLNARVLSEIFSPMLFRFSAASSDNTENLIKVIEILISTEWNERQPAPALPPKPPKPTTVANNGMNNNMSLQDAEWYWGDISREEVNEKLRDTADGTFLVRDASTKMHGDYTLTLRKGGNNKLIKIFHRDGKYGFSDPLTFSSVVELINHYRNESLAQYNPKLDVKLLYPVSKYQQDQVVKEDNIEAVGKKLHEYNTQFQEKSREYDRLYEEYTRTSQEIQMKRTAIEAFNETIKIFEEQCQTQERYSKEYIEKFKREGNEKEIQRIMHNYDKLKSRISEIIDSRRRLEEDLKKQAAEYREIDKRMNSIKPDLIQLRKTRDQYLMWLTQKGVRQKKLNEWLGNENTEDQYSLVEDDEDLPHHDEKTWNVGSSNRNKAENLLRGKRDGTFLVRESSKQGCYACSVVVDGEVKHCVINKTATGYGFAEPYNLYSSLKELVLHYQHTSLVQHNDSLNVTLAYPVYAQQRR

Compound: Cc1ccccc1Nc1ncc(-c2ccc(C(N)=O)cc2)cc1NC(=O)c1cc(F)cc(C(F)(F)F)c1 [I-79]
- IC50 (H1047R PIK3CA enzyme): 100 to 500 nM
- IC50 (cells): 5000 to 10000 nM

Compound: Cc1ccccc1Nc1ncc(-c2ccc(O)cc2)cc1NC(=O)c1cc(F)cc(C(F)(F)F)c1 [I-82]
- IC50 (H1047R PIK3CA enzyme): 500 to 1000 nM
- IC50 (cells): 10000 to 36000 nM

Compound: CNC(=O)c1ccc(-c2cnc(Nc3ccccc3C)c(NC(=O)c3cc(F)cc(C(F)(F)F)c3)c2)cc1 [I-84]
- IC50 (H1047R PIK3CA enzyme): 1000 to 10000 nM
- IC50 (cells): 5000 to 10000 nM

Compound: Cc1ccccc1Nc1ncc(-c2cnn(C)c2)cc1NC(=O)c1csc2ccccc12 [I-93]
- IC50 (H1047R PIK3CA enzyme): 100 to 500 nM
- IC50 (cells): 5000 to 10000 nM

Compound: Cc1ccccc1Nc1ncc(C(=O)NCc2ccnn2C)cc1NC(=O)c1csc2ccccc12 [I-135]
- IC50 (H1047R PIK3CA enzyme): 100 to 500 nM
- IC50 (cells): 1000 to 5000 nM

Compound: Cc1ccccc1Nc1ncc(C(=O)NC2CS(=O)(=O)C2)cc1NC(=O)c1csc2ccccc12 [I-136]
- IC50 (H1047R PIK3CA enzyme): ≤ 100 nM
- IC50 (cells): 1000 to 5000 nM

Compound: Cc1ccccc1Nc1ncc(C(=O)NCC2CS(=O)(=O)C2)cc1NC(=O)c1csc2ccccc12 [I-137]
- IC50 (H1047R PIK3CA enzyme): 100 to 500 nM
- IC50 (cells): 5000 to 10000 nM

Compound: Cc1ccccc1Nc1ncc(C(=O)NCc2nccs2)cc1NC(=O)c1csc2ccccc12 [I-138]
- IC50 (H1047R PIK3CA enzyme): ≤ 100 nM
- IC50 (cells): 5000 to 10000 nM

Compound: CNC(=O)c1cnc(Nc2ccccc2C)c(NC(=O)c2nsc3ccccc23)c1 [I-139]
- IC50 (H1047R PIK3CA enzyme): 500 to 1000 nM
- IC50 (cells): 10000 to 36000 nM

Compound: Cc1ccccc1Nc1ncc(-c2cnn(C)c2)cc1NC(=O)c1csc2ccc(F)cc12 [I-146]
- IC50 (H1047R PIK3CA enzyme): 100 to 500 nM
- IC50 (cells): 1000 to 5000 nM

Compound: CNC(=O)c1cnc(Nc2ccccc2C)c(NC(=O)c2csc3ccc(Cl)cc23)c1 [I-149]
- IC50 (H1047R PIK3CA enzyme): 100 to 500 nM
- IC50 (cells): 10000 to 36000 nM

Compound: CNC(=O)c1cnc(Nc2ccccc2C)c(NC(=O)c2csc3ccc(F)cc23)c1 [I-150]
- IC50 (H1047R PIK3CA enzyme): 100 to 500 nM
- IC50 (cells): 5000 to 10000 nM

Compound: Cc1ccccc1Nc1ncc(C(=O)NCc2ccn(C)n2)cc1NC(=O)c1cc(F)cc(C(F)(F)F)c1 [I-178]
- IC50 (H1047R PIK3CA enzyme): 100 to 500 nM
- IC50 (cells): 1000 to 5000 nM

Compound: O=C(NC1CS(=O)(=O)C1)c1cnc(N2CCCc3ccccc32)c(NC(=O)c2csc3ccccc23)c1 [I-180]
- IC50 (H1047R PIK3CA enzyme): 100 to 500 nM
- IC50 (cells): 10000 to 36000 nM

Compound: O=C(NCc1nccs1)c1cnc(N2CCCc3ccccc32)c(NC(=O)c2csc3ccccc23)c1 [I-181]
- IC50 (H1047R PIK3CA enzyme): 100 to 500 nM
- IC50 (cells): 10000 to 36000 nM

Compound: COCCNC(=O)c1cnc(Nc2ccccc2C)c(NC(=O)c2csc3ccccc23)c1 [I-190]
- IC50 (H1047R PIK3CA enzyme): 100 to 500 nM
- IC50 (cells): 10000 to 36000 nM

Compound: Cc1ccccc1Nc1ncc(C(=O)NCc2ccc(Cl)cc2)cc1NC(=O)c1csc2ccccc12 [I-191]
- IC50 (H1047R PIK3CA enzyme): 100 to 500 nM
- IC50 (cells): 1000 to 5000 nM

Compound: Cc1ccccc1Nc1ncc(C(=O)NC2COC2)cc1NC(=O)c1csc2ccccc12 [I-192]
- IC50 (H1047R PIK3CA enzyme): 100 to 500 nM
- IC50 (cells): 36000 to 100000 nM

Compound: Cc1ccccc1Nc1ncc(C(=O)NCc2cccnc2)cc1NC(=O)c1csc2ccccc12 [I-193]
- IC50 (H1047R PIK3CA enzyme): 100 to 500 nM
- IC50 (cells): 5000 to 10000 nM

Compound: Cc1ccccc1Nc1ncc(C(=O)NCC2CCCO2)cc1NC(=O)c1csc2ccccc12 (stereo not drawn) [I-195]
- IC50 (H1047R PIK3CA enzyme): 100 to 500 nM
- IC50 (cells): 10000 to 36000 nM

Compound: Cc1ccccc1Nc1ncc(C(=O)NCC(F)(F)F)cc1NC(=O)c1csc2ccccc12 [I-196]
- IC50 (H1047R PIK3CA enzyme): 100 to 500 nM
- IC50 (cells): 5000 to 10000 nM

Compound: Cc1ccccc1Nc1ncc(C(=O)NC(C)c2ccccc2)cc1NC(=O)c1csc2ccccc12 (stereo not drawn) [I-197]
- IC50 (H1047R PIK3CA enzyme): ≤ 100 nM
- IC50 (cells): 10000 to 36000 nM

Compound: Cc1ccccc1Nc1ncc(C(=O)NCC2CCOCC2)cc1NC(=O)c1csc2ccccc12 [I-198]
- IC50 (H1047R PIK3CA enzyme): 100 to 500 nM
- IC50 (cells): 10000 to 36000 nM

Compound: COc1cncc(CNC(=O)c2cnc(Nc3ccccc3C)c(NC(=O)c3csc4ccccc34)c2)c1 [I-199]
- IC50 (H1047R PIK3CA enzyme): 100 to 500 nM
- IC50 (cells): 10000 to 36000 nM

Compound: O=C(Nc1cc(C(=O)NC2CS(=O)(=O)C2)cnc1N1CCCc2ccccc21)c1cc(F)cc(C(F)(F)F)c1 [I-208]
- IC50 (H1047R PIK3CA enzyme): 500 to 1000 nM
- IC50 (cells): 5000 to 10000 nM

Compound: O=C(NCc1nccs1)c1cnc(N2CCCc3ccccc32)c(NC(=O)c2cc(F)cc(C(F)(F)F)c2)c1 [I-209]
- IC50 (H1047R PIK3CA enzyme): 500 to 1000 nM
- IC50 (cells): 10000 to 36000 nM

Compound: Cn1nccc1CNC(=O)c1cnc(N2CCCc3ccccc32)c(NC(=O)c2cc(F)cc(C(F)(F)F)c2)c1 [I-210]
- IC50 (H1047R PIK3CA enzyme): 1000 to 10000 nM
- IC50 (cells): 36000 to 100000 nM

Compound: Cc1ccccc1Nc1ncc(C(=O)NCC2CC(F)(F)C2)cc1NC(=O)c1cc(F)cc(C(F)(F)F)c1 [I-211]
- IC50 (H1047R PIK3CA enzyme): 100 to 500 nM
- IC50 (cells): 1000 to 5000 nM

Compound: Cc1ccccc1Nc1ncc(C(=O)NC2CC(F)(F)C2)cc1NC(=O)c1cc(F)cc(C(F)(F)F)c1 [I-212]
- IC50 (H1047R PIK3CA enzyme): 100 to 500 nM
- IC50 (cells): 1000 to 5000 nM

Compound: CNC(=O)c1cnc(N2C(=O)NCc3ccccc32)c(NC(=O)c2csc3ccccc23)c1 [I-215]
- IC50 (H1047R PIK3CA enzyme): 1000 to 10000 nM
- IC50 (cells): 36000 to 100000 nM

Compound: Cc1ccccc1Nc1ncc(C(=O)NCCS(C)(=O)=O)cc1NC(=O)c1cc(F)cc(C(F)(F)F)c1 [I-219]
- IC50 (H1047R PIK3CA enzyme): 100 to 500 nM
- IC50 (cells): 1000 to 5000 nM

Compound: Cc1cc(NC(=O)c2cnc(Nc3ccccc3C)c(NC(=O)c3cc(F)cc(C(F)(F)F)c3)c2)n[nH]1 [I-232]
- IC50 (H1047R PIK3CA enzyme): 100 to 500 nM
- IC50 (cells): 1000 to 5000 nM

Compound: Cc1ccccc1Nc1ncc(C(=O)Nc2ccncc2)cc1NC(=O)c1cc(F)cc(C(F)(F)F)c1 [I-234]
- IC50 (H1047R PIK3CA enzyme): 100 to 500 nM
- IC50 (cells): < 1000 nM
